The values below come from patent EP4671365A1, “KIT FOR INDUCING STEM CELLS TO DIFFERENTIATE INTO NK CELLS, USE OF KIT, AND USE OF COMBINATION OF NK CELLS AND TMZ IN TREATMENT FOR TMZ DRUG-RESISTANT GBM” (Xellsmart Biomedical (Suzhou) Co., Ltd, priority 2023, dated 2024).

The structures appear in SMILES notation.

One data set deals with T98G. In words: Flow cytometry of immune activation ligands after TMZ treatment. The class given is cell-based. Conditions: TMZ 1000 µM, 48 h; CD112, CD155, B7-H6, CD54, CD70, CD48, CD1d, PD-L1. The text has this:
Immune surveillance is an important mechanism for identifying and removing tumor cells, and the dynamic expression of proteins related to immune activation on the membrane of tumor cells is also the key to their recognition by immune cells or recognition escape. In this example, the changes in expression of immune-related proteins when GBM is resisting the effect of TMZ were further studied, so as to provide a theoretical basis for the immunotherapy. • A. GBM cell culture and treatment: See Example 5 for the procedures of T98G cell culture. The cells were cultured until an 80%-90% confluence and digested with pancreatin at 37 °C for 5 min. DMEM medium of a two-fold volume was added to stop the digestion. The cell suspension was transferred to a centrifuge tube and centrifuged at 300 g for 5 min. The cell pellet was resuspended in DMEM medium, and the cells were counted by AO/PI staining. According to the counting result, the density of the cell suspension was adjusted to 1 × 10^5 cells/mL. After that, an appropriate volume of TMZ stock solution (100 mM) was added to the cell suspension to reach a final TMZ concentration of 1000 µM in the cell suspension. […]
The cells treated with TMZ for 48 h were digested with a pancreatin digestion solution and centrifuged, and the supernatant was discarded. […] The cells were washed with PBS, centrifuged, resuspended, and detected on a flow cytometer. […]

For the next data set, the system named is sensitive GBM (U87). In words: Cell cycle assay (PI staining, flow cytometry). The class given is cell-based. Conditions: TMZ 300 µM. Here is the method:
(§1) TMZ acts on DNA after being absorbed into tumor cells in the human body, causing alkylation damage to the DNAs, thereby forming DNA double-strand breaks or cross-linking, arresting the cell cycle, and triggering the proliferation arrest or apoptosis of the tumor cells. To explore the mechanism by which the resistant GBM cell strains resist TMZ, a cell cycle assay was performed to determine the effect of TMZ on the cell cycle of different GBM cell strains. A. Cell culture and treatment: See Example 5 for the procedures of U87 and T98G cell culture and TMZ treatment. The concentration of TMZ used in this example was 300 µM. B. Preparation of cell samples: The Beyotime cell cycle kit (Beyotime, C1052) was used according to the manufacturer's instructions. 1 × 10^6 cells were added to a centrifuge tube for later use and centrifuged at 1000 g for 3-5 min to precipitate the cells. The supernatant was discarded by pipetting, and 1 mL of pre-cooled PBS was added to resuspend the cells. The mixture was transferred to a 1.5 mL centrifuge tube. The cells were pelleted by centrifugation, and the supernatant was discarded by pipetting. C. Cell fixation: The cells were added to 1 mL of pre-cooled 70% ethanol, mixed well by pipetting, and fixed at 4 °C for 30 min. The mixture was centrifuged at about 1000 g for 3-5 min to pellet the cells. The supernatant was discarded by pipetting, and about 1 mL of PBS pre-cooled in an ice bath was added to resuspend the cells. The cells were pelleted again by centrifugation, and the supernatant was discarded by pipetting. D. Preparation of and staining with propidium iodide (PI) staining solution: Referring to Table 2, an appropriate amount of PI staining solution was prepared according to the number of samples to be tested. Table 2. Preparation of PI staining solutions
(§2) Staining: 0.5 mL of the PI staining solution was added to each tube of cell samples, and the cell pellet was slowly and fully resuspended and incubated in the dark at 37 °C for 30 min. The mixture was preserved at 4 °C or in an ice bath in the dark. The flow cytometry was completed within 24 h after the staining was completed.
(§3) E. Flow cytometry detection and analysis: The red fluorescence was detected at an excitation wavelength of 488 nm and the light scattering was also detected on a flow cytometer (Agilent, Novocyte3000). The cellular DNA content assay and light scattering analysis were performed using an appropriate analysis software (Agilent, Novoexpress).
Background: A flow cytometer gives signals particle by particle.

Data set [1] concerns resistant GBM (T98G). In words: Cell cycle assay (PI staining, flow cytometry). In kind it is cell-based. Particulars: TMZ 300 µM, compared to control DMSO. Here is the method: as §1, §2, §3
Another data set relates to TMZ-resistant GBM (T98G). In words: CellTiter-Glo cell viability assay, sensitivity response to TMZ. In kind it is cell-based. The procedure:
(§4) U87 and T98G cells were cultured until an 80%-90% confluence and digested with pancreatin (Beyotime, C0201-100mL) at 37 °C for 5 min. DMEM medium (Gibco, 11965084) of a two-fold volume was added to stop the digestion. The cell suspension was transferred to a centrifuge tube and centrifuged at 300 g for 5 min. The cell pellet was resuspended in DMEM medium, and the cells were counted by AO (acridine orange)/PI (propidium iodide) staining. According to the counting result, the density of the cell suspension was adjusted to 1 × 10^5 cells/mL. The cell suspension was added to the 96-well plate at 100 µL/well as required for grouping, and then the 96-well plate was incubated in an incubator at 37 °C overnight.
(§5) TMZ powder (Sigma, T2577-25MG) was dissolved in an appropriate volume of DMSO to prepare a TMZ stock solution at a concentration of 100 mM. The TMZ solution with the highest concentration (5000 µM) was prepared as follows: 225 µL of the TMZ stock solution was diluted with 4.5 mL of DMEM medium, and the resultant solution was then diluted to give TMZ working solutions at concentrations of 1000 µM, 500 µM, 200 µM, 100 µM, and 10 µM.
(§6) After the U87 and T98G cells were cultured overnight, and the adherent growth and the logarithmic growth phase were observed, the TMZ working solutions at the corresponding working concentration were added according to the grouping design at 100 µL/well, and the cells were incubated in the incubator. […]
(§7) The CellTiter-Glo® luminescent cell viability assay kit (Promega, G7572) was used, and the procedures in the manufacturer's instructions were performed. An appropriate volume of the CellTiter-Glo® solution was mixed with a DMEM medium in a ratio of 1:1 to prepare a working solution. The CellTiter-Glo® working solution was added to the 96-well plate at 50 µL/well. The plate was incubated at room temperature for 10 min in the dark and then detected on a microplate reader (TECAN, Infinite®200 PRO) for the chemiluminescence.
(§8) The assay and detection schemes were the same as those in Example 5.1, and a concentration of 300 µM in the sensitive interval in Example 5.1 was selected as the TMZ concentration.
(ATP-based viability assays read luminescence as a measure of living cells.)

The next data set concerns TMZ-sensitive GBM (U87). Described as above. In kind it is cell-based. The procedure: as §4, §5, §6, §7, §8
The conditions of data set [2]: in vivo, cited from earlier work.
In data set [3] the test system is resistant GBM (T98G). In words: In vitro killing of tumor target cells (CellTiter-Glo). In kind it is cell-based. Here is the method: Furthermore, in this example, the in vitro efficacy of iPSC-NK cells in combination with TMZ was explored by monitoring the killing of tumor target cells. • A. The procedures for the culture, digestion, and plating of GBM tumor cells T98G are described in Example 5. • B. TMZ preparation: See Example 5 for the procedures of treating cells. In this example, the cells were pre-treated at 1000 µM for 48 h. • C. iPSC-NK cells were prepared as described in Example 8. • D. Co-incubation for killing. According to the preset effector-to-target ratios (1:8, 1:4, and 1:1), an appropriate volume of iNK cells in an expansion culture was taken (note that the iNK cell viability should be kept at 90% or higher) and counted by AO/PI staining. According to the counting result, the cell suspension was adjusted to a density of 1 × 10^5 cells/mL. The tumor cells were seeded at 1 × 10^4 cells/well. After the adherent culture of T98G cells in the 96-well plates (6 h after re-digestion and inoculation), the NK cell suspension was added to the T98G plates according to the grouping design. After 18 h of co-incubation, the viability of the T98G cells was detected using the CellTiter-Glo® luminescent cell viability assay kit. Three replicates were set in each group. • E. Cell viability assay. At preset time points (8, 16, 24, and 48 h), the cells were collected. The CellTiter-Glo® luminescent cell viability assay kit was used according to the manufacturer's instructions. An appropriate volume of the CellTiter-Glo® solution was mixed with a DMEM medium in a ratio of 1:1 to prepare a working solution. The CellTiter-Glo® working solution was added to the 96-well plate at 50 µL/well. The plate was incubated at room temperature for 10 min in the dark and then detected on a microplate reader for the chemiluminescence. • F. Killing rate calculation. Killing rate (%) = (fluorescence intensity in the untreated group - fluorescence intensity in the treatment group)/fluorescence intensity in the untreated group × 100%. * denotes p < 0.05 in a T test, and ** denotes p < 0.01. […]

[4] abbreviates: TMZ 300 µM, 48 h, compared to control DMSO.

With `Cn1nnc2c(C(N)=O)ncn2c1=O` [TMZ, 3,4-dihydro-3-methyl-4-oxoimidazo[5,1-d]-asymmetric-tetrazol-8-amide], in the data set with T98G, the “expression of immune activation ligands” value is reported as “up-regulated expression to different extents”. Further, the “DNA content in the G2/M phase” value with sensitive GBM (U87) (24 h) is listed as 16.86%; in the data set on sensitive GBM (U87) (48 h), 23.22%; with sensitive GBM (U87) (72 h), 40.01%. The “DNA in the G2/M phase” value with resistant GBM (T98G) [1] is listed as “did not change significantly”. Moreover, the viability at 200 µM is not below 80% with TMZ-resistant GBM (T98G) (Homo sapiens, T98G, TMZ 200 µM, 72 h, read-out: viable T98G cell count) and approximately 50% in the data set with TMZ-sensitive GBM (U87) (Homo sapiens, U-87 MG, TMZ 200 µM, 72 h, read-out: viable U87 cell count). For the same compound, the viability at 300 µM was more than 80% in the data set with TMZ-resistant GBM (T98G) (Homo sapiens, T98G, TMZ 300 µM, at 72 h, read-out: viable cell count (T98G)) and less than 40% in the data set with TMZ-sensitive GBM (U87) (Homo sapiens, U-87 MG, TMZ 300 µM, at 72 h, read-out: viable U87 cell count). Besides, the viability at 500 µM in the data set on TMZ-resistant GBM (T98G) (Homo sapiens, T98G, TMZ 500 µM, 72 h, read-out: viable T98G cell count) is 70%; with TMZ-sensitive GBM (U87) (Homo sapiens, U-87 MG, TMZ 500 µM, 72 h, read-out: viable U87 cell count) it was approximately 40%. In the data set with TMZ-resistant GBM (T98G) (setting [4]), the “growth of T98G cells (microscopic results)” value is “not greatly different”. The “growth of U87 cells (microscopic results)” value with TMZ-sensitive GBM (U87) (setting [4]) is listed as “significantly inhibited”. The oral bioavailability in data set [2] (po) is recorded as approximately 100%. The “concentration detected in the cerebrospinal fluid, of the TMZ plasma concentration” value in data set [2] is “about 20%”. The “killing effect against target cells” value in the data set on resistant GBM (T98G) [3] (8 h, 16 h, 24 h and 48 h, effector-to-target ratios 1:8, 1:4, 1:1, TMZ 1000 µM pretreatment 48 h) is on record as “weak killing effect”. The “killing effects / in vitro killing activity” value in the data set with resistant GBM (T98G) [3] (E:T = 1:1, co-incubation 8 h) is “substantially no killing effects”. Besides, the killing effect entry in the data set with resistant GBM (T98G) [3] (at 48 h, TMZ 1000 µM) was “about 10%”.
